Where a SMILES comes first, the peptide text is derived from it.
System: PMNs
Assay: C5a-triggered chemotaxis assay, PMNs (IncuCyte)
Format: cell-based, human
Settings: 10 ng to 1 μg per well, 24 h
Procedure: The chemotaxis assay in this study was monitored and quantified by the IncuCyte ZOOM® Live-Cell Imaging System. The y-axis label “total area normalized to initial area in each group” in Fig. 3k, m represent the ratio of the total cell area at each time point to the initial area (0 h) within the same field of view. A higher ratio indicates […] cell migration activity.
One hundred nanograms of human C5a protein (ACROBiosystems, Beijing, China) was preincubated with linear or cyclic peptides at the indicated concentrations (10 ng, 100 ng, or 1 μg) in 1640 complete culture medium for 30 min. PMNs isolated by flow cytometric sorting for chemotaxis assays were purchased from Oribiotech Co., Ltd. (Shanghai, China). A total of 1 × 10^4 cells were added to the upper chamber of 96-well cell chemotaxis plates (Sartorius, Germany) and allowed to migrate at 37 °C for 24 h. The chemotactic response of neutrophils toward C5a with or without C5a-blocking peptides was quantified and analyzed via an IncuCyte ZOOM® Live-Cell Imaging System (Sartorius, Germany). The chemotactic response of mouse neutrophils was assessed following the established protocol for PMNs.

CSCC[C@@H]1NC(=O)[C@@H]2CCCN2C(=O)[C@H](CCSC)NC(=O)[C@H](CO)NC(=O)[C@H](Cc2c[nH]cn2)NC(=O)CNC(=O)[C@H](CO)NC(=O)[C@H](Cc2ccccc2)NC(=O)[C@H](CCCNC(=N)N)NC(=O)[C@H](CCC(=O)O)NC(=O)[C@H](Cc2ccccc2)NC(=O)[C@H](C(C)C)NC1=O [Cp1] (cyclo(HSMPMVFERFSG))
suppression of C5a-driven recruitment of PMNs: dose-dependently suppressed
